Read-outs that look alike come from different tables or passages of the source. Starred links: 1 amine or outer side, 2 acyl side, 3 side chain; linkers in the order of their positions; H or OH if unused. Non-standard residues stand in square brackets, D forms with d. Residues, ends and D or L forms follow the SMILES beside them. Groups on a side chain read outwards from the residue. *: point of attachment. C18 diacid = O=C(O)CCCCCCCCCCCCCCCCC(=O)*; C17 diacid = O=C(O)CCCCCCCCCCCCCCCC(=O)*; γGlu = O=C(O)[C@H](CCC(=O)[*:2])N[*:1]; NMeY = CN[C@@H](Cc1ccc(O)cc1)C(=O)O; AEEA = NCCOCCOCC(=O)O; Aib = CC(C)(N)C(=O)O
Key:
[1] = Human plasma protein binding (PPB); format: in vitro ADME; settings: for fraction unbound at 30 min, 1000 nmol/L: both sexes, pH 7.4, read-out: Human PPB (FUplasma); for free unbound peptide in human plasma (in words): judged for once per week (QW) dosing
Experimental: Stock solutions: (1000 μM) of the peptides are prepared in DMSO.
Human plasma (mixed gender; containing K2-EDTA as anti-coagulant; pre-adjusted to pH 7.4—NB alternative species may be used) is spiked individually with each test peptide (1000 nmol/L), sampled for analysis and then incubated (n=4) at 37° C. in a water bath for 30 minutes. Following the incubation period, the plasma is sampled for analysis, then transferred to ultracentrifugation tubes and centrifuged (n=3) at […] and 4° C. for 3 hours, after which the supernatant is sampled for analysis. An additional aliquot of the supernatant is taken at the end of the centrifugation period to determine the total protein concentration. An aliquot of the incubated plasma will be stored at 4° C. for 3 hours and then sampled for analysis. At the point of sampling, all samples are matrix-matched, treated with ice-cold acetonitrile/methanol (4:1 (vfv)) containing internal standard, centrifuged al 2000 g and 4° C. for 10 minutes and stored prior to LC-MS/MS analysis. An appropriate positive control compound control will be incubated and centrifuged in parallel; control plasma is also centrifuged to generate samples for matrix-matching. Fraction unbound in plasma (Fuplasma) values is determined by comparison of the analyte response in plasma to the analyte response in the supernatant, determined via peak area response ratios.
The samples are analyzed by LC-MS/MS using a 6500 (or equivalent) triple quadrupole mass spectrometer (AB Sciex) coupled to an appropriate Liquid Chromatography (LC) system. Protein binding and stability values are determined via peak area ratios using multiple reaction monitoring (MRM) parameters following compound optimisation. Multiple reaction monitoring (MRM) is a highly sensitive method of targeted mass spectrometry (MS) that can be used to selectively detect and quantify peptides based on the screening of specified precursor peptide-to-fragment ion transitions.

[2] = Pharmacokinetics in dog after IV and SC dosing; settings: in vivo
Experimental: Pharmacokinetic (PK) were conducted in dog in order to determine the half-life after IV and SC dosing. The peptide was dissolved in 10% DMSO/0.09% Polysorbate/PBS pH 7.4 to a concentration of 3 nmol/mL and the animal were dose with a volume of 1 mL/kg SC or IV. Blood sample were collected at 0, 0.033, 0.083, 0.25, 0.5, 1, 2, 4, 6, 8, 12, 24, 48, 72, 96, 120, 168, 336 hours for IV dosing and 0.25, 0.5, 1, 2, 4, 6, 8, 12, 24, 48, 72, 96, 120, 168, 336 for SC dosing, EDTA-K2 was used as anticoagulant. The plasma concentration of the peptide was measured using LCMS. Allometric scaling of lipidated peptide pharmacokinetics including T1/2 and MRT is known in the art for rodent to dog and mini pig and to humans. […] See for example, Discovery and Development of Liraglutide and Semaglutide. Knudsen, L. B.; Lau, J. Frontiers in Endocrinology, 2019, vol 10, Article 155.

[3] = Dog plasma protein binding (PPB); format: in vitro ADME; settings: fraction unbound, dog serum; for fraction unbound at 30 min, 1000 nmol/L: pH 7.4, read-out: Dog PPB (FUplasma)
Text: Dog PPB values presented below are obtained essentially as described for Human PPB samples, with the difference being that dog serum is used instead of human serum. Table 10 is provided with the values of (Fu,plasma) as fraction unbound expressed as a percentage compared to the percent bound. i.e. if the value is 0.0123, then the fraction unbound is […], which is 1.23% of the peptide is unbound and 98.77% is bound in plasma. Methods and analysis for performing the dog PPB protocol and results are the same as noted herein as for the Human PPB protocol and analysis.

[4] = Solubility in phosphate buffer pH 7.4
In short: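 3 mg of peptide treated with 100 μL portions of 200 mM phosphate buffer pH 7.4, sonicating/vortexing up to 1 min, with further buffer added until fully dissolved. Solubility then quantified by HPLC.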

human GLP-1R = target: T1, human GLP-1R (Homo sapiens, UniProt P43220); experiment: Human GLP1R agonist activity, intracellular cAMP accumulation; format: cell-based; settings: Human GLP1R cAMP EC50, HEK293T (nM), HEK-293T cells overexpressing human GLP-1R, 1 hr
T1 construct: HEK-293T cells overexpressing full-length human GLP-1R; FLAG (N); host or cells: HEK-293T
In short: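 Frozen assay-ready cells washed and resuspended at 4×10^5 cells/mL in Krebs Ringer buffer, then incubated with compound 1 hr at room temperature in the dark. cAMP read by HTRF (anti-cAMP antibody, d2-cAMP tracer). Normalised to 1 nm GLP-1 (100%) and DMSO (0%).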

C57BL/6J mice = experiment: Oral glucose tolerance test (OGTT); format: in vivo; settings: 3 nmol/kg s.c., 24 hours before glucose loading
In short: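 Peptide or vehicle given s.c. at 0.1, 0.3, 3 or 10 nmol/kg (peptide-dependent), 24 h before oral 50% dextrose at 5 ml/kg unless stated otherwise. Blood glucose read at 0, 15, 30 and 60 min. % inhibition = (1−(AUC cpd−AUC naïve)/(AUC veh−AUC naïve))×100.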

[5] = fraction unbound, human plasma, 1000 nmol/L peptide, ultracentrifugation

T1 sequence (P43220 24-463): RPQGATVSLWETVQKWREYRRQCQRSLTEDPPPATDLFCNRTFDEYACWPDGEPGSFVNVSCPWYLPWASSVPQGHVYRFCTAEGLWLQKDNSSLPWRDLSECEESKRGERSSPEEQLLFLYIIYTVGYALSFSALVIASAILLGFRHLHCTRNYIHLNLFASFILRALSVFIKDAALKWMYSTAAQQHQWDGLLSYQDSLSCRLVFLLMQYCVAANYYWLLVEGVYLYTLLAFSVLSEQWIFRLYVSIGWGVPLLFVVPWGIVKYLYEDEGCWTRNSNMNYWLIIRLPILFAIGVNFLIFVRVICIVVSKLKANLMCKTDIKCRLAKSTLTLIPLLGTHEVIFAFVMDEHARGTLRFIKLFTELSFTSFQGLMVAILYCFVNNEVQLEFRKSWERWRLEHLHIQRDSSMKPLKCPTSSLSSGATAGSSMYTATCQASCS

| Compound | fraction unbound at 30 min, 1000 nmol/L [1, 5] | free unbound peptide in human plasma (in words) [1] | MRT ([2]; 3 nmol/kg, read-out: mean residence time (MRT)) [h] | half-life ([2]; IV 3 nmol/kg, read-out: IV T½ (converted)) [h] | MRT last ([2]; SC 3 nmol/kg, read-out: SC MRT 0-last) [h] | fraction unbound at 30 min, 1000 nmol/L [3] | solubility ([4]; pH 7.4, aqueous buffer, pH 7.4 Phosphate Buffer - Solubility, 200 mM Phosphate buffer pH 7.4) [mg/mL] | solubility ([4]; pH 7.4, solubility in phosphate buffer at pH 7.4, 200 mM phosphate buffer pH 7.4) [mg/mL] | fraction unbound at 30 min, 1000 nmol/L ([1]; plasma (K2-EDTA), fraction unbound, human plasma, 1000 nmol/L peptide, ultracentrifugation) | half-life ([2]; iv, 3 nmol/kg) [h] | MRT last ([2]; sc, 3 nmol/kg) [h] | Dog PPB (FUplasma) [3] | solubility ([4]; pH 7.4) [mg/mL] | solubility ([4]; pH 7.4, aqueous buffer) [mg/mL] | Human PPB (FUplasma) [1, 5] | EC50 (human GLP-1R) [nM] | Oral Glucose Tolerance Test Percent decrease in blood glucose AUC (%) over 60 mins (C57BL/6J mice) |
| --- | --- | --- | --- | --- | --- | --- | --- | --- | --- | --- | --- | --- | --- | --- | --- | --- | --- |
| CC[C@H](C)[C@H](NC(=O)[C@H](Cc1ccccc1)NC(=O)[C@@H](NC(=O)CNC(=O)[C@H](CCC(=O)O)NC(=O)C(C)(C)NC(=O)[C@H](Cc1ccc(O)cc1)NC)[C@@H](C)O)C(=O)N[C@@H](CO)C(=O)N[C@@H](CC(=O)O)C(=O)N[C@@H](Cc1ccc(O)cc1)C(=O)N[C@@H](CO)C(=O)N[C@H](C(=O)NC(C)(C)C(=O)N[C@@H](CC(C)C)C(=O)N[C@@H](CC(=O)O)C(=O)N[C@@H](CCCNC(=N)N)C(=O)NC(C)(C)C(=O)N[C@@H](C)C(=O)N[C@@H](CCC(N)=O)C(=O)NC(C)(C)C(=O)N[C@@H](CC(N)=O)C(=O)N[C@@H](Cc1ccccc1)C(=O)N[C@H](C(=O)N[C@@H](CC(N)=O)C(=O)N[C@@H](Cc1c[nH]c2ccccc12)C(=O)N[C@@H](CC(C)C)C(=O)N[C@@H](CC(C)C)C(=O)N[C@@H](C)C(=O)N[C@@H](CCC(N)=O)C(=O)N[C@@H](CCCCNC(=O)COCCOCCNC(=O)COCCOCCNC(=O)CC[C@H](NC(=O)CC[C@H](NC(=O)CCCCCCCCCCCCCCCC(=O)O)C(=O)O)C(=O)O)C(=O)N1CCC[C@H]1C(=O)N[C@@H](CO)C(=O)N[C@@H](CO)C(=O)NCC(=O)N[C@@H](C)C(=O)N1CCC[C@H]1C(=O)N1CCC[C@H]1C(=O)N1CCC[C@H]1C(=O)N[C@@H](CO)C(N)=O)C(C)C)[C@@H](C)CC [Compound 16] (H-[NMeY][Aib]EGTFISDYSI[Aib]LDR[Aib]AQ[Aib]NFVNWLLAQK([AEEA-AEEA-γGlu-γGlu-C17 diacid])PSSGAPPPS-NH2) | < 0.0012 | optimum free unbound peptide | 59 | 38 | 59 | ≤ 0.00116 | ≥ 30 | ≥ 15 | – | – | – | – | – | – | – | – | – |
| CC[C@H](C)[C@H](NC(=O)[C@H](Cc1ccccc1)NC(=O)[C@@H](NC(=O)CNC(=O)[C@H](CCC(=O)O)NC(=O)C(C)(C)NC(=O)[C@H](Cc1ccc(O)cc1)NC)[C@@H](C)O)C(=O)N[C@@H](CO)C(=O)N[C@@H](CC(=O)O)C(=O)N[C@@H](Cc1ccc(O)cc1)C(=O)N[C@@H](CO)C(=O)N[C@H](C(=O)NC(C)(C)C(=O)N[C@@H](CC(C)C)C(=O)N[C@@H](CC(=O)O)C(=O)N[C@@H](CCCNC(=N)N)C(=O)NC(C)(C)C(=O)N[C@@H](C)C(=O)N[C@@H](CCC(N)=O)C(=O)NC(C)(C)C(=O)N[C@@H](CC(N)=O)C(=O)N[C@@H](Cc1ccccc1)C(=O)N[C@H](C(=O)N[C@@H](CC(N)=O)C(=O)N[C@@H](Cc1c[nH]c2ccccc12)C(=O)N[C@@H](CC(C)C)C(=O)N[C@@H](CC(C)C)C(=O)N[C@@H](C)C(=O)N[C@@H](CCC(N)=O)C(=O)N[C@@H](CCCCNC(=O)COCCOCCNC(=O)COCCOCCNC(=O)CC[C@H](NC(=O)CC[C@H](NC(=O)CCCCCCCCCCCCCCCCC(=O)O)C(=O)O)C(=O)O)C(=O)N1CCC[C@H]1C(=O)N[C@@H](CO)C(=O)N[C@@H](CO)C(=O)NCC(=O)N[C@@H](C)C(=O)N1CCC[C@H]1C(=O)N1CCC[C@H]1C(=O)N1CCC[C@H]1C(=O)N[C@@H](CO)C(N)=O)C(C)C)[C@@H](C)CC [Compound 27, Me-Y-Aib-E-G-T-F-I-S-D-Y-S-I-Aib-L-D-R-Aib-A-Q-Aib-N-F-V-N-W-L-L-A-Q-Km-P-S-S-G-A-P-P-P-S-NH2] (H-[NMeY][Aib]EGTFISDYSI[Aib]LDR[Aib]AQ[Aib]NFVNWLLAQK([AEEA-AEEA-γGlu-γGlu-C18 diacid])PSSGAPPPS-NH2) | – | optimum free unbound peptide | – | – | – | – | – | – | 0.0013 | 77 | 109 | <0.002 | ≥ 15 | ≥ 30 | – | – | – |
| CC[C@H](C)[C@H](NC(=O)[C@H](CO)NC(=O)[C@H](Cc1ccc(O)cc1)NC(=O)[C@H](CC(=O)O)NC(=O)[C@H](CO)NC(=O)[C@@H](NC(=O)[C@H](Cc1ccccc1)NC(=O)[C@@H](NC(=O)CNC(=O)[C@H](CCC(=O)O)NC(=O)C(C)(C)NC(=O)[C@H](Cc1ccc(O)cc1)NC)[C@@H](C)O)[C@@H](C)CC)C(=O)N[C@@H](C)C(=O)N[C@@H](CCCCNC(=O)CNC(=O)CNC(=O)CNC(=O)CNC(=O)CNC(=O)CCCCCCCCCCCCCCCCCCC(=O)O)C(=O)N[C@@H](CC(=O)O)C(=O)N[C@@H](CCCNC(=N)N)C(=O)NC(C)(C)C(=O)N[C@@H](C)C(=O)N[C@@H](CCC(N)=O)C(=O)NC(C)(C)C(=O)N[C@@H](CC(N)=O)C(=O)N[C@@H](Cc1ccccc1)C(=O)N[C@H](C(=O)N[C@@H](CC(N)=O)C(=O)N[C@@H](Cc1c[nH]c2ccccc12)C(=O)N[C@@H](CC(C)C)C(=O)N[C@@H](CC(C)C)C(=O)N[C@@H](C)C(=O)N[C@@H](CCC(N)=O)C(=O)N[C@@H](CO)C(=O)N1CCC[C@H]1C(=O)N[C@@H](CO)C(=O)N[C@@H](CO)C(=O)NCC(=O)N[C@@H](C)C(=O)N1CCC[C@H]1C(=O)N1CCC[C@H]1C(=O)N1CCC[C@H]1C(=O)N[C@@H](CO)C(=O)O)C(C)C [Compound 40] | – | – | – | – | – | 0.0004 | – | – | – | – | – | – | – | – | <0.002 | 5.6 | 102% (3 nmol/kg) |
